Measured values as given in a melting point compilation (Tetko et al.; mined from patent text by program, amines drawn as free bases though some values may be those of a salt).

| SMILES | melting point [°C] |
| --- | --- |
| O=c1[nH]c(NCCCN(Cc2ccccc2)c2ccccn2)ncc1Cc1ccc(Cl)cc1 | 80 to 86 |
| COc1cc(O)ccc1OCc1ccccc1 | 84 |
| O=C(CON1C(=O)c2ccccc2C1=O)OC(c1ccccc1)c1ccccc1 | 173 to 175 |
| CSC(=NC(=O)c1ccccc1)Nc1ccccc1 | 78 to 94 |
| COC(=O)c1cc([N+](=O)[O-])c(-c2ccccc2)c([N+](=O)[O-])c1 | 148 |
| CC(C)CN(Cc1nnc(-c2ncn3c2CN(C)C(=O)c2c(Cl)cccc2-3)o1)CC(C)C | 161 to 163 |
| CN(c1ccc(Cl)cc1)c1ncccc1[N+](=O)[O-] | 107 to 110 |
| CCCCc1nn2cc(CC)nc2n1Cc1ccc(-c2ccccc2-c2nnn[nH]2)cc1 | > 100 |
| CCOC(=O)CCCN(C(=O)CCC1CCCCC1)C1N=C(c2ccccc2)c2ccccc2N(C)C1=O (configuration not stated) | 103 to 105 |
| COc1ccc2c(c1)C=C(CN1CCC3(CC1)C(=O)NCN3c1ccccc1)CC2 | 184 to 186 |
| Cc1ccc2nc(-c3cc(C(F)(F)F)nn3-c3ccc(S(C)(=O)=O)cc3)sc2c1 | 202 to 204 |
| Clc1cccc(Cn2ccc(CN3CCC(c4ccccc4)(c4ccccc4)CC3)n2)c1 | 136 to 137 |
| COc1cccc2c1CCC=C2N1CCOCC1 | 80 to 90 |
| COc1ccc(C(F)(F)C(F)(F)F)cc1C(C)=O | 47 |
| O=C(Nc1n[nH]c2cc(Cl)ccc12)c1ccccc1 | 188 |
| COc1ccc(C=C2CS(=O)(=O)CC3=C2N=C2SCCN2C3c2ccc(OC)cc2)cc1 (configuration not stated) | 235 to 240 |
| Cc1cc(Cl)c(N=C2NCCN2)cc1[N+](=O)[O-] | 198 to 201 |
| CS(=O)(=O)c1ccc(-n2cc(C(F)F)nc2-c2ccc(Cl)cc2)cc1 | 179 to 180 |

| SMILES | melting point [°C] |
| --- | --- |
| CC(C)(c1cc(Cl)ccc1O)c1cc(Cl)ccc1O | 142 |
| O=C1CC=C(c2c[nH]c3ccc([N+](=O)[O-])cc23)CC1 | 210 to 212 |
| OC1CCCc2cnc3cc(OCc4ccccc4)ccc3c21 (configuration not stated) | 155 to 157 |
| CN1CC(CCO)N2c3ccccc3Oc3ccccc3C2C1 (configuration not stated) | 138 to 139 |
| CC(C)[C@@H](C(N)=O)C(=O)O | 174 |
| Cc1ccc(-c2nc(CCC(=O)c3ccc(Br)s3)c(C)o2)cc1 | 118 to 119 |
| CC(C=O)=CC=CC(C)=CC=CC=C(C)C1OCC(C)(C)CO1 | 140 |
| OCCc1coc(-c2ccc3ccccc3c2)n1 | 96 to 98 |
| CN1C(=O)[C@H](NC(=O)CCC2CCCCC2)[N+]([O-])=C(c2ccccc2)c2ccccc21 | 222 to 224 |
| C[C@@H](Cn1ncc2ccc3oc(C(=O)OCc4ccccc4)cc3c21)NC(=O)OCc1ccccc1 | 140 to 141 |
| Brc1cccc(Sc2ccc3ccccc3c2)c1 | 68 to 70 |
| Fc1ccc(C(c2ccccc2)(c2ccccc2)n2ccnc2)cc1 | 146 |
| O=C(Nc1ccccc1SCc1ncon1)c1ccc(Cl)cc1 | 103 |
| CCn1ncnc1COc1nn2c(-c3ccccc3F)nncc2c1C(C)(C)CC | 89 to 92 |
| Cc1sc2[nH]c(=O)c(=O)[nH]c2c1C | > 300 |
| N#Cc1ccc(N2CCC(=O)CC2)cc1 | 100 to 101 |
| Cc1cccc(-n2c(-c3sc(Nc4ccccc4)nc3-c3ccccc3)nc3ccccc3c2=O)c1 | 105 to 107 |

Further lines, results first:

| melting point [°C] | SMILES |
| --- | --- |
| 122 to 125 | CN(C)Cc1cccc(CSCCNC2=NS(=O)N=C2N)c1 (configuration not stated) |
| 285 to 287 | Cc1ccccc1C=C1CCn2c1nc1ccc(C(=O)O)cc1c2=O |
| 63 to 66 | COC1=C(OC)C(=O)C2=C(CC(CCCCCCCC(=O)O)(c3ccccc3)C2)C1=O |
| 112 to 113 | COCC(C)Oc1cc(Oc2ccc(S(C)(=O)=O)cc2)cc2cc(C3=NCC(CC(C)(C)O)S3)[nH]c12 (configuration not stated) |
| 108 to 110 | CN(C(=O)OC(C)(C)C)c1cc(Oc2ccccc2N2CCCCC2)ccc1N |
| 122 to 124 | COc1ccc(C)cc1NC(=O)Nc1ccc2c(c1)CCN(C(=O)Nc1ccc(OCCO)cc1C(F)(F)F)C2 |
| 98 to 99 | CC(C)c1cc(OCCOCc2ccccc2)cc2c1C(=O)N(CSc1ccccc1)S2(=O)=O |
| 120 to 122 | CC(=O)CCC(=S)N(CC(=O)O)C1Cc2ccccc2C1 |
| 38 to 40 | CCCCCCCCc1ccc(C(=O)CCCCCC(=O)OCC)cc1 |
| 179 to 181 | COC(=O)C=Cc1ccc(OCC2CN(c3ccccc3)C(=O)O2)cc1 (configuration not stated) |
| 199 to 209 | Nc1nc(O)c2c(n1)NCC(CCc1ccc(C(=O)N[C@@H](CCC(=O)O)C(=O)O)c(F)c1)C2 (some centres not stated) |
| 58 to 59 | CCOC(=O)C(C(=O)Cc1cc(OC(C)C)c(Cl)cc1F)=C(N)C(F)(F)F |
| 145 to 146 | O=C1OC(CCC#Cc2ccccc2)C(O)=C1O (configuration not stated) |
| 152 to 154 | CCC(CC)Nc1cc(C)nc(Oc2c(C)cc(C)cc2C)c1NC(=O)CCl |
| 120 to 122 | CCC(CC)C(=O)OC1CC(C)C=C2C=CC(C)C(CCC3CC(O)CC(=O)O3)C21 (configuration not stated) |
| 111 to 112 | CCOP(=O)(OCC)C1(P(=O)(OCC)OCC)CC(C(=O)c2ccccc2[N+](=O)[O-])=NN1 |
| 63 to 64 | CCOC(=O)C(C)Oc1ccc(Sc2ccc(C(F)(F)F)cc2[N+](=O)[O-])cc1 (configuration not stated) |
| 233 to 234 | CCn1c(=O)c2c(nc(/C=C/c3ccc4c(c3)OCCO4)n2C)n(CC)c1=O |
| 61 to 63 | CCCOc1nc2sccc2c(=N)n1CCC |

| melting point [°C] | SMILES |
| --- | --- |
| 97 to 97.5 | COc1ccc(C=CC(=O)c2ccc(OC)c(CC=C(C)C)c2O)cc1 |
| 162 to 165 | CCn1c(=O)c(C(=O)O)c(O)c2ccc(C)nc21 |
| 248 to 250 | CC1CC(=O)N(Cc2ccccc2)c2ccccc2N1C(=O)CN1C(=O)c2ccccc2C1=O (configuration not stated) |
| 43 to 45 | COC(=O)C1SC=CC1Sc1ccccc1 (configuration not stated) |
| 75 to 76 | OC(CNCCCCCCOCCCc1ccc(N2CCCCC2)cc1)c1ccc2c(n1)COC(c1ccccc1)O2 (configuration not stated) |
| 247 to 248 | Cc1c(-c2ccncc2)[nH]c2c1C(=O)CC(C)C2 (configuration not stated) |
| 127 | CCC(Oc1ccc(C2CCOCC2)cc1)C(=O)O (configuration not stated) |
| 86 | COC(=O)CN1C(=O)c2ccc(F)cc2S1(=O)=O |
| 75 to 77 | COc1cc(C(=O)C(Br)CCC2CCCCC2)c(OC)cc1C (configuration not stated) |
| 137 to 139 | CCCCc1nn(-c2cc([N+](=O)[O-])ccc2Br)c(=O)n1Cc1ccc(-c2ccccc2S(=O)(=O)NC(C)(C)C)cc1F |
| 167 | COC(=O)C1=C(C)NC(N)=C(C(=O)OC(C)C)C1c1cccc([N+](=O)[O-])c1 (configuration not stated) |
| 120 to 122 | CCOC(C)=NS(=O)(=O)c1nc(-c2ccccc2)ns1 |
| 145 to 147 | CNC(=O)n1cc(C(N)=O)nc1C(C)(C)C |
| 167 to 169 | Cc1nc2c(cc1C(=O)O)CCCCC2 |
| > 250 | CCn1cc(C(=O)O)c(=O)c2cc(F)c(O)cc21 |
| 330 to 333 | N#Cc1cccc(NC(=O)NCc2cccc3c2CN(C2CCC(=O)NC2=O)C3=O)c1 (configuration not stated) |
| 81 | CCOC(C)OC(CCOc1ccc([N+](=O)[O-])cc1)C(F)(F)F (configuration not stated) |
| 80 to 83 | Cc1ncsc1CCOS(N)(=O)=O |
